Results taken from ChEMBL document CHEMBL1142021, “Aglycon specificity profiling of alpha-glucosidases using synthetic probes” (Bioorg Med Chem Lett, 2005).

What was measured:
[1] = target: T1, Beta-mannosidase (Homo sapiens) (UniProt O00462); assay: Inhibition of beta-Mannosidase at 5 umol/mL
T1 sequence (whole entry): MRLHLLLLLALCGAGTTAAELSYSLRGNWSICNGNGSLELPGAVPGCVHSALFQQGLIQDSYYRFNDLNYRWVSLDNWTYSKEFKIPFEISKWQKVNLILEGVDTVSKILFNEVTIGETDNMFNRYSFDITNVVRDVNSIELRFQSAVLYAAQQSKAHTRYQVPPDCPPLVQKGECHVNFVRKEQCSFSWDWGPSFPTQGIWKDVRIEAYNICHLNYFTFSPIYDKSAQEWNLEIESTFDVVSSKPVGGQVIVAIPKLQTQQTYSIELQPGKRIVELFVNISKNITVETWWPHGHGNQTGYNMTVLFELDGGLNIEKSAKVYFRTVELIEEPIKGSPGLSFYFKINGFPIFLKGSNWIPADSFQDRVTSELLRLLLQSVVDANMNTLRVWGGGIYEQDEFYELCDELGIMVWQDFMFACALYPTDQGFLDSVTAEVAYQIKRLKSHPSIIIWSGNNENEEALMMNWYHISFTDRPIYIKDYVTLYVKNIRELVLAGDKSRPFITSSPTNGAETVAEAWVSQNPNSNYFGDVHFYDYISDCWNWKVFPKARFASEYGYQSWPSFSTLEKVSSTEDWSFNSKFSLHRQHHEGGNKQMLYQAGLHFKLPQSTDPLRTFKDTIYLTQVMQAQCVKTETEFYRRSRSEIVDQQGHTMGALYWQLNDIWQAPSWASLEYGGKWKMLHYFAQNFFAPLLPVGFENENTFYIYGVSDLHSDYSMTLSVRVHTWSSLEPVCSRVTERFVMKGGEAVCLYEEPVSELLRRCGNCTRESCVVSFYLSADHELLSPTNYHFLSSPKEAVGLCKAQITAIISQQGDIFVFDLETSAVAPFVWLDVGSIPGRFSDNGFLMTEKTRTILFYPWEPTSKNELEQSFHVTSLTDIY

[2] = organism: Homo sapiens; assay: Inhibition of alpha-Galactosidase at 5 umol/mL
[3] = target: T2, Alpha-glucosidase (Oryza sativa Japonica Group) (UniProt Q9LGC6); assay: Inhibition of Rice glucosidase (of family 31 alpha-glucosidase) at 1 umol/mL
T2 sequence (whole entry): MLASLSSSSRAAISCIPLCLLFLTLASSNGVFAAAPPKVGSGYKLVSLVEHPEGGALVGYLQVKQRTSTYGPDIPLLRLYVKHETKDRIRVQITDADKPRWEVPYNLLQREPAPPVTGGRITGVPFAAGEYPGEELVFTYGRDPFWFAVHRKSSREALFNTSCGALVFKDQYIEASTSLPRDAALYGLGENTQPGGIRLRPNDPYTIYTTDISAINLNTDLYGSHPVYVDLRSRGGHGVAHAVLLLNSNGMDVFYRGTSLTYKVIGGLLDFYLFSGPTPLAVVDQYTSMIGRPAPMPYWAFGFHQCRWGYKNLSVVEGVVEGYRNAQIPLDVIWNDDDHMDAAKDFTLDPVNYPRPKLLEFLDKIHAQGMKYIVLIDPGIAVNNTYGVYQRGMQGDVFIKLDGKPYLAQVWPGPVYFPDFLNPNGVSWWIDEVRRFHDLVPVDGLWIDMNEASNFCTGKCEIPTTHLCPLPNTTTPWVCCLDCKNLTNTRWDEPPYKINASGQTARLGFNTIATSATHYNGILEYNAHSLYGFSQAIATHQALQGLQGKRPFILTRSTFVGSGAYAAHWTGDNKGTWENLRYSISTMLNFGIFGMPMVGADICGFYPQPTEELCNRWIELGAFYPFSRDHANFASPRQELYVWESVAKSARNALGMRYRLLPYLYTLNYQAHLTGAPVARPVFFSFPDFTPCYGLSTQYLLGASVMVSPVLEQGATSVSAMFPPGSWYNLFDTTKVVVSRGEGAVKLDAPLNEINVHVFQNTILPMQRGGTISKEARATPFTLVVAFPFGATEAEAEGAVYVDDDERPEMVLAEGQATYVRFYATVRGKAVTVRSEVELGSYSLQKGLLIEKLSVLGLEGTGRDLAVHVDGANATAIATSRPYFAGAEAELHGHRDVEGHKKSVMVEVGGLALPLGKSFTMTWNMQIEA

[4] = system: Saccharomyces cerevisiae; assay: Inhibition of Saccharomyces cerevisiae glucosidase (of family 13 alpha-glucosidase) by compound with concentration 1 umol/mI
[5] = target: T3, Lysosomal alpha-mannosidase (Homo sapiens) (UniProt O00754); assay: Inhibition of alpha-Mannosidase at 5 umol/mL
T3 sequence (whole entry): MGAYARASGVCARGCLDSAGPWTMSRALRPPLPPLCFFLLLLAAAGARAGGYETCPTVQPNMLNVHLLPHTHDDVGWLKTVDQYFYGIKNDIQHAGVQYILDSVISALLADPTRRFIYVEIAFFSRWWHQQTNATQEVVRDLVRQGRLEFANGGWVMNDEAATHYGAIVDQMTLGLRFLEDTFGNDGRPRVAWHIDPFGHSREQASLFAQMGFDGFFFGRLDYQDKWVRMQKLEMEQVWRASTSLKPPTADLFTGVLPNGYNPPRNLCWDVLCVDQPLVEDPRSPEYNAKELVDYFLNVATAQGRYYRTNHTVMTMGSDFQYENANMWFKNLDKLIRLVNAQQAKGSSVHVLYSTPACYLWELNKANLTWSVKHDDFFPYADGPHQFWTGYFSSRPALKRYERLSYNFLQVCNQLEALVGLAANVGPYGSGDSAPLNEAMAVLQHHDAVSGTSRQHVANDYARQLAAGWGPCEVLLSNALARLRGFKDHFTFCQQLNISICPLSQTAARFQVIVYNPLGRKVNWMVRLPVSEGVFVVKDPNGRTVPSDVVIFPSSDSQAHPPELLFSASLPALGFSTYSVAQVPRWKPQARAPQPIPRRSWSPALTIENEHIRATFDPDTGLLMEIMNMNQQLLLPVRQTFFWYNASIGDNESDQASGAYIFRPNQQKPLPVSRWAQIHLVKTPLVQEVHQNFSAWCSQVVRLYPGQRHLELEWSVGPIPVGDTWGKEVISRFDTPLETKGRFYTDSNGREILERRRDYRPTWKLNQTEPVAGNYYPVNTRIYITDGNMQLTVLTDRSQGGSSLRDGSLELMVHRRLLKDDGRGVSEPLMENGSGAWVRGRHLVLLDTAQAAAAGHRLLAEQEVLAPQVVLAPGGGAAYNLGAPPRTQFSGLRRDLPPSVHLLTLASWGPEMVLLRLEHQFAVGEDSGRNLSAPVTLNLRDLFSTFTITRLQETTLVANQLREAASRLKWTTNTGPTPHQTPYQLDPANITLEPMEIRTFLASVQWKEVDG

Which results are given for `O=C(CO)NCC1OC(CO)C(O)C(O)C1O` (stereo not drawn)?
inhibition [1]: < 1%; inhibition [2]: < 1%; inhibition [3]: 10.7%; inhibition [4]: < 1%; inhibition [5]: < 1%

With `CC(=O)NCC1OC(CO)C(O)C(O)C1O` (stereo not drawn) as the compound, how does the inhibition [1] read?
The inhibition was < 1%.

What about the inhibition [2] of the same compound?
Its inhibition is < 1%.

And the inhibition [3]?
The inhibition was 21.8%.

And the inhibition [4]?
The inhibition was < 1%.

What about the inhibition [5] of the same compound?
The inhibition was < 1%.

`O=C(CCO)NCC1OC(CO)C(O)C(O)C1O` (stereo not drawn) was tested. Which inhibition [1] did it give?
Its inhibition is < 1%.

What about the inhibition [2] of the same compound?
The inhibition was < 1%.

What about the inhibition [3] of the same compound?
The inhibition was 8.5%.

And the inhibition [4]?
The inhibition was 21.1%.

What about the inhibition [5] of the same compound?
Its inhibition is < 1%.

For `CC(C)(C)C(=O)NCC1OC(CO)C(O)C(O)C1O` (stereo not drawn), which inhibition [1] is on record?
The inhibition was < 1%.

What about the inhibition [2] of the same compound?
The inhibition was < 1%.

And the inhibition [3]?
Its inhibition is 3.8%.

And the inhibition [4]?
Its inhibition is 6.1%.

What about the inhibition [5] of the same compound?
The inhibition was < 1%.

What does the source list for `O=C(NCC1OC(CO)C(O)C(O)C1O)c1ccccc1` (stereo not drawn)?
inhibition [2]: < 1%; inhibition [3]: 16%; inhibition [4]: 67.4%; inhibition [5]: < 1%

Which results are given for `O=C(CCCO)NCC1OC(CO)C(O)C(O)C1O` (stereo not drawn)?
inhibition [1]: < 1%; inhibition [2]: < 1%; inhibition [3]: 7.6%; inhibition [4]: < 1%

`O=C(CCCCCO)NCC1OC(CO)C(O)C(O)C1O` (stereo not drawn) was tested. Which inhibition [1] did it give?
The inhibition was < 1%.

What about the inhibition [2] of the same compound?
Its inhibition is < 1%.

And the inhibition [3]?
Its inhibition is 26%.

And the inhibition [4]?
The inhibition was < 1%.

What about the inhibition [5] of the same compound?
The inhibition was < 1%.

For `O=C(CCCCO)NCC1OC(CO)C(O)C(O)C1O` (stereo not drawn), which inhibition [1] is on record?
The inhibition was < 1%.

What about the inhibition [2] of the same compound?
Its inhibition is < 1%.

And the inhibition [3]?
The inhibition was 18.3%.

What about the inhibition [4] of the same compound?
The inhibition was 100%.

And the inhibition [5]?
Its inhibition is < 1%.
